Measured values: patent publication US8759095B2, “Diagnostic and therapeutic tools for diseases altering vascular function” (Universiteit Maastricht, priority 2007, dated 2014)

What was measured:
[1] = system: thrombin generation and fibrinolysis; test: Coagulation and fibrinolysis markers (prothrombin fragment F1+2, D-dimer) after endotoxin challenge; format: in vivo, human; conditions: p<0.05
Procedure: (§1) Twentyone healthy Caucasian male volunteers were studied. […] Participants had no history of cardiovascular disease. […] All experiments were performed after an overnight fast.

[2] = system: monocytes; test: Leukocyte differentiation and monocyte flow cytometry after endotoxin challenge; format: in vivo, human
Procedure: as §1
Whole blood samples were collected in pyrogen-free lithium-heparin tubes and then incubated for 10 min with 9 volumes ice-cold erythrocyte lysis buffer and centrifuged for 10 min at 4° C. Remaining cells were washed twice with ice-cold PBS. For flow cytometric analysis 0.5×10^6 cells were incubated in FACS buffer mixed with antibody. All reagents were titrated to obtain optimal results as recommended by the manufacturers. Cell surface staining was performed with Fluorescein Isothiocyanate (FITC) labelled mouse anti-human CD14 (IgG2a), anti-human Allophycocyanin (APC) labelled CD18 (IgG1) and Phycoerythrin (PE) labelled anti-human CD11b (IgG1) and CD62L (IgG1) (R&D Systems, San Jose, Calif., USA). Appropriate isotype control antibodies were used to correct for non-specific antibody binding. After staining, the cells were washed, fixed in 4% paraformaldehyde, and analyzed by flow cytometry using a FACS Calibur flow cytometer. Data were analyzed with CellQuest software (Becton Dickinson, Franklin Lakes, N.J., USA).

[3] = system: glycocalyx shedding; test: Plasma glycocalyx components (hyaluronan, heparan sulphate) and hyaluronidase activity after endotoxin challenge; format: in vivo, human
Procedure: as §1

[4] = system: TNFα-induced inflammatory responses; test: Plasma inflammatory markers (IL-6, CRP) and circulating leukocytes after endotoxin challenge; format: in vivo, human
Procedure: as §1

[5] = system: endotoxin-induced inflammatory reactions; test: Clinical symptoms and vital signs after intravenous endotoxin challenge in healthy male volunteers; format: in vivo, human
Procedure: as §1

[6] = system: endothelial glycocalyx; test: Estimation of systemic glycocalyx volume (Dextran 40 distribution volume minus circulating plasma volume) after endotoxin challenge; format: in vivo, human; design: haematocrit values: unit not given here; conditions: 4 hours after endotoxin infusion
Procedure: as §1
Systemic glycocalyx volume was estimated as previously published by subtracting circulating plasma volume from the intravascular distribution volume of the glycocalyx permeable tracer Dextran 40 (Nieuwdorp M et al. 2006. Diabetes 55: 480-6; Suffredini et al. 1999, supra). Circulating plasma volume was calculated with a previously published method (Orth et al. 1998. Anesth Analg 87: 1234-8). The intravascular distribution volume of labelled autologous erythrocytes was used to quantify the circulating blood volume. Blood was drawn and centrifuged at 1,330 rpm for 5 minutes. Subsequently, sodium fluorescein (fluorescein-di-Na 25%, 250 mg/ml, AZUA Pharmacy, Amsterdam, the Netherlands) was added to the erythrocyte fraction for 5 minutes. After careful washing, labelled erythrocytes were resuspended in saline to the initial volume (60 ml) and re-infused. Subsequently, blood was drawn at 4, 5, 6, and 7 minutes after infusion. The fraction of labelled erythrocytes in the total erythrocyte pool was used to estimate the circulating erythrocyte volume (VERY). Pre-injection unlabeled erythrocytes served as negative control. The fraction of labelled erythrocytes in the blood was measured using a FACScan analyzer (FACS Calibur®, Becton Dickinson, Mountain View, USA). At least 100,000 cells were counted. Data were analyzed by Cellquest (Becton Dickinson, San Jose, Calif., USA). Haematocrit (Ht) was measured after centrifugation of heparinized blood in a Hettich-Haematokrit centrifuge at 10,000 rpm during 5 minutes (Hettich, Tuttlingen, Germany). Circulating plasma volume was calculated from VERY and large vessel Ht by the following formula: circulating plasma volume=([1−Ht]×VERY)/Ht.
Dextran 40 (Rheomacrodex; NPBI International, Emmercompascuum, the Netherlands) was used as a probe to estimate total intravascular volume, which includes the glycocalyx compartment. A bolus of 10 ml Dextran 1 (Promiten; NPBI International, Emmer-compascuum, the Netherlands) was injected to attenuate the risk of anaphylactic reactions prior to Dextran 40 infusion. 100 ml Dextran 40 was injected intravenously, followed by repeated blood sampling at 5, 7, 10, 15, 20, and 30 minutes. Dextran 40 concentration was calculated by measuring the increase in glucose concentration in the post infusion samples after hydrolyzation of Dextran 40 glucose polymers (Van Kreel et al. 1998. Clin Chim Acta 275: 71-80). Glucose concentration per time point was assessed in duplicate using the hexokinase method (Gluco-quant, Hitachi 917; Hitachi). To determine the initial intravascular distribution volume of Dextran 40, the concentration of Dextran 40 at the time of injection was estimated by exponential fitting of the measured Dextran 40 concentrations. Exponential time constants (τ [min]) were used to determine Dextran 40 systemic clearance rates (τ^−1 min^−1).

[7] = system: sublingual microcirculation; test: Microvascular glycocalyx / capillary density by OPS imaging of the sublingual microcirculation after endotoxin challenge; format: in vivo, human; conditions: upon endotoxin challenge; from 59±7 at baseline; p<0.01
Procedure: as §1
Thickness of endothelial glycocalyx in individual capillary blood vessels was measured by orthogonal polarization spectral (OPS) imaging of the sublingual microcirculation (Cytometrics, Philadelphia, Pa., USA) as previously published (Nieuwdorp et al. 2006, supra; Nieuwdorp et al. 2006. Diabetes 55: 1127-32). In short, the width of flowing erythrocytes was measured in 5 individual capillaries before and immediately after capillary leukocyte passage. In healthy capillaries, the glycocalyx limits capillary blood filling by separating erythrocytes from the luminal endothelial surface, which is known as the red cell exclusion zone. […] Images sized 728×576 pixels were recorded were collected with a 5× objective providing a 325× magnification at a frame rate of 25/second. […] The anatomical capillary diameter and the width of the flowing erythrocyte column were measured using digital calipers prior to and after spontaneous capillary leukocyte passage. Per participant, glycocalyx dimension was determined in at least 5 capillaries. […] In addition as indication of capillary density, the number of capillaries per field was counted.

[8] = system: endothelial glycocalyx; conditions: in vivo; cited from earlier work
[9] = system: endothelial glycocalyx; design: species or system human; conditions: in vivo

In the case of Etanercept, the D-dimer ([1]; from 0.2±0.1 at baseline) is reported as 0.3 ± 0.1 mg/L, the “prothrombin activation fragment F1+2” value ([1]; from 0.3±0.1 at baseline) is reported as 2.1 ± 0.9 nmol/L and the “reduction of monocyte count” value ([2]; 4 hours after endotoxin infusion, p<0.05 compared to baseline) is reported as 51±32%. For the same compound, the “change in percentage of CD62L+ (L-selectin) expressing monocytes” value ([2]; 4 hours after endotoxin, p<0.05 versus saline group) was “+66±42%”, the “CD14+ monocyte counts” value ([2]; after endotoxin infusion, ns between groups) was 26±13% and the “CD11b+/CD18+ (Mac-1 complex) monocyte count, median” value ([2]; after endotoxin infusion, p<0.01 versus saline) was 0.65±0.1. For the same compound, the “plasma hyaluronidase activity, change compared to baseline” value ([3]; 4 hours after endotoxin infusion, ns) was −8±14%, the “plasma heparan sulphate levels” value ([3]; 24 hours after endotoxin infusion, p<0.01 versus saline group) was 7.4 ± 1.5 µg/mL and the “heparan sulphate plasma levels” value ([3]; during the 4 hours after endotoxin challenge, from 5.4±1.3, ns) was 5.1 ± 1.0 µg/mL. For the same compound, the plasma hyaluronan levels ([3]; within first hour after endotoxin infusion, from 58±13, p<0.05) was 46 ± 10 ng/mL, the “number of circulating leukocytes compared to baseline” value ([4]; 4 hours after endotoxin, both treatment groups) was “doubled” and the “plasma CRP” value ([4]; after endotoxin challenge, from 0.6±0.4 at baseline, p<0.01) was 16.0 ± 3.4 mg/L. The plasma IL-6 ([4]; after endotoxin challenge, from 4.6±3.1 at baseline, p<0.05) was 127 ± 98 pg/mL, the body temperature ([5]; 4 hours after endotoxin infusion, from 36.6±0.5 at baseline, ns) was 37.3±0.5 °C and the heart rate ([5]; 4 hours after endotoxin infusion, from 62±4 at baseline, ns) was 69±3. For the same compound, the diastolic blood pressure ([5]; 4 hours after endotoxin infusion, from 69±6 at baseline, ns) was 67±6 mm Hg, the systolic blood pressure ([5]; 4 hours after endotoxin infusion, from 125±7 at baseline, ns) was 123±10 mmHg and the “clinical symptoms of endotoxemia (chills, headache, myalgia, nausea)” value ([5]; after endotoxin infusion, saline versus Etanercept group, data not shown) was “more frequently and more intensive in the saline group compared to the Etanercept group”. The systemic glycocalyx volume ([6]; baseline 1.7±0.5, p<0.01) was 1.1 ± 0.2 L, the “systemic Dextran 40 clearance rate” value ([6]; from 0.009±0.002 at baseline, ns) was 0.009 ± 0.001 min⁻¹ and the haematocrit values ([6]; from 0.43±0.02 at baseline, ns) was 0.42±0.02. For the same compound, the circulating plasma volume ([6]; from 2.9±0.5 at baseline, ns) was 2.8 ± 0.6 L, the “Dextran 40 distribution volume” value ([6]; from 4.6±0.6 at baseline, p<0.05) was 3.9 ± 0.5 L and the “rate of Dextran 40 plasma clearance (FIG. 1B)” value ([6]; saline group versus Etanercept group) was “increased in the saline group as compared with Etanercept group”. For the same compound, the “capillary density (number of capillaries per field)” value [7] was 43±15.

For `O=[N+]([O-])OCC(CO[N+](=O)[O-])O[N+](=O)[O-]` [nitroglycerine], the “effect on the glycocalyx as known” value [8] is listed as “known to cause damage to the glycocalyx” and the “status of the glycocalyx (RBCW, glycocalyx width; FIGS. 5A and 5B)” value [9] is listed as “a clear distinction between the status of the glycocalyx in treated and untreated subjects”.
